From patent US5342834A, “Method for androgen supplementation” (priority 1992, dated 1994)
Entries after “also recorded” stand apart in the source; their conditions may differ.

Assays:
[1] = Metabolism (5α reduction) of 3H-androgens by rat epididymis; type: in vitro ADME; conditions: for metabolised: rat, epididymis homogenate, pH 7.4, androgen = 100%, read-out: Conversion of 5α reduced metabolites: Diols
Experimental: The metabolism of T, 19NT and 7MNT by rat epididymis was also studied. Collected epididymides were processed as described for prostate. Incubations were performed in Tricine-buffer pH 7.4 as used for liver incubations. Thin layer chromatography of metabolic mixtures and standards was performed as described for prostate preparations.

[2] = Metabolism (5α reduction) of 3H-androgens by rat ventral prostate homogenate; type: in vitro ADME; conditions: for metabolism / 5α reduction in prostate (in words): prostate homogenate; for metabolised at 0.5 h: rat, ventral prostate homogenate, ventral prostate, androgen = 100%, 30 min incubation, read-out: Conversion of 5α reduced metabolites: 5α-dihydro-steroid
Experimental: To study metabolism in rat prostate, ventral prostates (1 g) were collected in ice-cold saline. All subsequent operations were carried out at 0°-4° C. The tissues were washed three times with homogenizing buffer (50 mM tris, 1.5 mM EDTA, 1 mM dithiothreitol and 10% glycerol, pH 7.5) and then homogenized in 4 vol. of the same buffer using an Ultra-turrax at a setting of 6. The prostates were given three 10 seconds bursts with intermittent cooling. The resulting homogenate was passed through four layers of cheesecloth and the filtrate was collected.
Incubation mixtures consisted of 50 nmol of unlabeled steroid, 40,000 CPM of the corresponding tritiated steroid and 1 μmol of NADPH in 0.2 ml of the buffer. The mixture was equilibrated for 10 min at 37° C. Reaction was started by adding 0.8 ml of homogenate (5.3 mg/ml protein). After 30 min of incubation, the mixture was cochromatographed with authentic steroids selected as possible metabolites.

[3] = Metabolism (decrease of steroid level) in incubation with rat liver cytosol; type: in vitro ADME; conditions: for remaining at 2 h: 2h incubation, read-out: steroid remaining unmetabolized / recovered
Experimental: (§1) To prepare rat liver microsomes and cytosol, thawed livers were homogenized in 4 vol. of TED buffer (10mM Tricine, 1.5 mM EDTA, 1 mM dithiothreitol, pH 7.4) using a glass homogenizer and a loosefitting Teflon piston for nine strokes with intermittent cooling. This and all subsequent steps were performed at 4° C. The homogenate was spun at 13000×g for 30 min in a Sorvall refrigerated centrifuge. The supernatant fraction was recentrifuged at 13000×g for another 30 min. The resulting supernatant fraction (13K supernatant) was centrifuged at 105,000×g using a Beckman Ultracentrifuge (Model L) for 60 min. The 105K supernatant (cytosol) was saved. The microsomal pellet was resuspended in TED buffer, and spun down again at 105,000×g. The resulting pellet is known as the 105K pellet of the microsome fraction (or "microsome") .
(§2) Incubation mixtures consisted of 52 nmol of unlabeled steroid (T, 7MNT or 19NT), approximately 40,000 CPM of the corresponding tritiated steroid and 5 umol of NADPH in 0.2 ml TED buffer (pH 7.4). This was incubated for 10 min at 37° C. in a constant temperature water bath. Reaction was initiated by the addition of 0.8 ml of either 13K supernatant, microsomes or cytosol, containing 7.05, 0.62 or 5.64 mg/ml of protein, respectively. Incubations were quenched with 2 ml of ethyl acetate, vortexed briefly, and frozen in a dry ice-alcohol bath. The ethyl acetate was separated from the frozen aqueous phase. Extraction was performed again in the same way. The combined organic phase was evaporated and the remaining steroids were analyzed.
The procedure used for the cytosol preparations was the same as that for microsomes, except that incubations were carried out for 90 min.
(§3) For isolation of radioactive metabolites, the procedure was the same as for unlabeled metabolites, except that each tube contained 50,000 CPM of ^3 H-labeled 7MNT.
(§4) In this series of experiments, the decreases in the levels of testosterone,19-nortestosterone, and 7MNT were followed over a two-hour period of incubation with microsomal or cytosolic fractions of rat liver. […] Catabolism of 19NT was maximum at 30 min, with no further change beyond that, leaving a persistent unmetabolized residue of about 20 percent of the added steroid. After 30 min of incubation, 85 percent of the 7MNT remained unaltered; forty percent of the 7MNT was recovered after 2h.

[4] = Metabolism (decrease of steroid level) in incubation with rat liver microsomes; type: in vitro ADME
Experimental: as §1, §2
In preparation for the isolation and identification of unlabelled steroid metabolites in the microsome preparations, 360 μg of 7MNT were dispensed into 24 tubes in parallel with identical tubes containing ^3 H-labeled 7MNT to be used as marker steroid. The mixtures were incubated for 60 min at 37° C., extracted twice with 2 ml of ethyl acetate, taken to dryness, redissolved in a mixture of dichloromethane/methanol (1:1, v/v) and quantitatively applied to silica gel coated TLC plates along with synthetically prepared suspected metabolites of radioactive 7MNT in a parallel lane. The plates were developed with chloroform/methanol (95:5, v/v). Spots corresponding to the radioactive marked spots were eluted with ethyl acetate and taken to dryness.
as §3, §4

[5] = background statement; cited from earlier work
[6] = Androgenic potency
[7] = Non-androgenic (e.g. progestational) activity
[8] = Metabolism by rat liver 13K supernatant fraction; type: in vitro ADME; conditions: 30 min, 37° C., system enriched with NADPH
Experimental: as §1
Incubation mixtures consisted of 52 nmol of unlabeled steroid (T, 7MNT or 19NT), approximately 40,000 CPM of the corresponding tritiated steroid and 5 umol of NADPH in 0.2 ml TED buffer (pH 7.4). This was incubated for 10 min at 37° C. in a constant temperature water bath. Reaction was initiated by the addition of 0.8 ml of either 13K supernatant, microsomes or cytosol, containing 7.05, 0.62 or 5.64 mg/ml of protein, respectively. […] The combined organic phase was evaporated and the remaining steroids were analyzed. […]

| Structure (SMILES) | metabolism / 5α reduction in epididymis (in words) [1] | metabolised [1] [%] | metabolism / 5α reduction in prostate (in words) [2] | metabolised at 0.5 h [2] [%] | remaining at 2 h [3] [%] | metabolism in microsomes (in words) [4] | time before which steroid was completely metabolized ([4]; earliest aliquot taken at 15 min) [min] | metabolism in cytosol (in words) [3] | persistent unmetabolized residue of the added steroid ([4]; beyond 30 min of two-hour incubation) | time of maximum catabolism ([4]; two-hour incubation) [min] | androgen potency versus testosterone (in words) [5] | androgen potency (in words) [6] | non-androgenic activity (in words) [7] | remaining at 0.5 h ([4]; after 30 min of incubation, read-out: steroid remaining unaltered) [%] | steroid recovered ([4]; after 2h) | metabolism by 13K supernatant (in words) [8] |
| --- | --- | --- | --- | --- | --- | --- | --- | --- | --- | --- | --- | --- | --- | --- | --- | --- |
| C[C@]12CC[C@H]3[C@@H](CCC4=CC(=O)CC[C@@]43C)[C@@H]1CC[C@@H]2O [T, testosterone] | converted to their respective reduced A ring metabolites | 86 | nearly half of the added T was reduced to 5α-DHT | 48 | ~12 | completely metabolized by the microsomes before the earliest aliquot was taken | < 15 |  |  |  |  |  |  |  |  |  |
| C[C@]12CC[C@H]3[C@@H](CCC4=CC(=O)CC[C@@H]43)[C@@H]1CC[C@@H]2O [19NT, 19-nortestosterone] | converted to their respective reduced A ring metabolites; also recorded: metabolized more slowly than T | 57 | metabolized to the reduced product more slowly than testosterone | 22 | 40 | qualitatively similar to that of T, though slower |  | still slower | about 20% | 30 |  |  |  |  |  |  |
| C[C@]12CCC(=O)C[C@@H]1CC[C@@H]1[C@@H]2CC[C@]2(C)[C@@H](O)CC[C@@H]12 [DHT, 5α-dihydrotestosterone] |  |  |  |  |  |  |  |  |  |  | much more potent androgen than testosterone |  |  |  |  |  |
| C[C@@H]1CC2=CC(=O)CC[C@@H]2[C@H]2CC[C@]3(C)[C@@H](O)CC[C@H]3[C@@H]21 [7MNT, 7α-methyl-19-nortestosterone] | substantially no 5α-dihydro product was formed in either tissue; also recorded: epididymis did not reduce or otherwise metabolize 7MNT |  | substantially no 5α-dihydro product was formed in either tissue; also recorded: remained unmetabolized; also recorded: did not reduce or otherwise metabolize 7MNT; also recorded: not converted to the 5α-dihydro product |  |  | After 30 min of incubation, most of the 7MNT was retrieved unaltered; also recorded: Two significant 7α-methylated metabolites were observed: a less polar one representing the 3,17-dione, and a more polar one in the region of the diols or triols; also recorded: An additional quantitatively minor polar metabolite was also detected |  | Half of the starting 7MNT was recovered after 2h incubation; also recorded: generated at least one metabolite that was more polar than the parent compound |  |  |  | high potency | lack of significant non-androgenic activity | 85 | forty | relatively resistant to metabolism under these incubation conditions; also recorded: Two metabolites, tentatively identified as 7α-methyl-5β-estrane-3, 17β-diol and 7α-methyl-estr-4-ene-3, 17-dione were found; also recorded: A minor highly polar metabolite was also observed |
